Measured values taken from patent publication US9790233B2, “Compositions and methods of modulating 15-PGDH activity” (CASE WESTERN RESERVE UNIVERSITY, priority 2012, dated 2017).

What was measured:
[1] = test system: 15-PGDH-luciferase fusion reporter in V9m, LS174T and V503 cells; test: 15-PGDH-luciferase fusion gene reporter induction, stated for the three cell line backgrounds together; format: cell-based; conditions: V9m, LS174T, V503; FIG. 1
A549 cells = test: Cellular toxicity on A549 cells (CellTiter-Glo); format: cell-based; conditions: 24 hours; concentrations of up to 10 uM
Hepatocyte stability = format: in vitro ADME
Experimental: Time to inhibition refers to the time needed to inhibit the generation of NADH by 15-PGDH from the moment with drug is added into the reaction mix. Delta Tm refers to the shift in melting temperature of recombinant 15-PGDH in the presence of drug (with cofactor NADH also present). Concentration of Full Cell Line Reporter Induction refers to the concentration of drug that needs to be added to reporter cell line to achieve maximal induction of the 15-PGDH-luciferase gene fusion reporter cassette, as measured by luciferase assays. Hepatocyte stability refers to the half-life of compound in the presence of hepatocytes in culture. Toxicity refers to the concentration of compound needed to decrease cell numbers in a cell culture assay.

CD45.2 marked marrow = test: Competitive bone marrow transplant, blood chimerism; format: in vivo, C57BL/6J mice; conditions: donors 5 mg/kg IP daily for 3 doses; weeks 12 and 16
Experimental: On day 3 mice were sacrificed, marrow flushed and mixed at a 1:1 ratio with vehicle treated CD45.1 marrow. 2 million whole BM cells were injected into the tail vein of lethally irradiated CD45.1 mice and percent chimerism measured via flow cytometry at weeks 8, 12, 16.

[2] = Survival of irradiated mice receiving a bone marrow transplant; format: in vivo, C57BL/6J mice
Description: The experimental design is depicted in FIG. 50.
Under the conditions of the mouse colony during this study, control mice receiving 100,000-500,000 cells are all dead between days 4-13 of study. […] Such activity would be of particular utility in settings, such as transplantation with umbilical cord stem cells, in which donor cell numbers are limited.

[3] = Survival after whole body irradiation; format: in vivo, C57BL/6J mice
liver = test: Liver regeneration after partial hepatectomy; format: in vivo, mice
colon = test: Dextran sodium sulfate (DSS) induced colitis; format: in vivo, FVB mice

CCCC[S+]([O-])c1sc2nc(-c3cccs3)cc(-c3ccccc3)c2c1N (centres unmarked) [SW033291, 2-(butylsulfinyl)-4-phenyl-6-(thiophen-2-yl)thieno[2,3-b]pyridin-3-amine]
luciferase activity of cells expressing 15-PGDH luciferase fusion construct [1]: increase luciferase activity | effect on CellTitre-Glo levels (A549 cells): No effect on CellTitre-Glo levels | Hepatocyte stability (Hepatocyte stability; Table 4): Stable > | Hepatocyte stability (Hepatocyte stability; half-life in presence of hepatocytes in culture, Table 3): Stable > couple | percent blood chimerism of CD45.2 marked cells (CD45.2 marked marrow): significantly increased | number of surviving mice ([2]; 1 × 10^5 donor marrow cells, Day 2): 3 | number of surviving mice ([2]; 1 × 10^5 donor marrow cells, Day 3): 3 | number of surviving mice ([2]; 1 × 10^5 donor marrow cells, Day 4): 2 | number of surviving mice ([2]; 1 × 10^5 donor marrow cells, Day 5): 1 | number of surviving mice ([2]; 1 × 10^5 donor marrow cells, Day 6): 0 | number of surviving mice ([2]; 2 × 10^5 donor marrow cells, Day 2): 3 | number of surviving mice ([2]; 2 × 10^5 donor marrow cells, Day 3): 3 | number of surviving mice ([2]; 2 × 10^5 donor marrow cells, Day 4): 3 | number of surviving mice ([2]; 2 × 10^5 donor marrow cells, Day 5): 3 | number of surviving mice ([2]; 2 × 10^5 donor marrow cells, Day 6): 2 | number of surviving mice ([2]; 2 × 10^5 donor marrow cells, Day 7): 2 | number of surviving mice ([2]; 2 × 10^5 donor marrow cells, Day 8): 2 | number of surviving mice ([2]; 2 × 10^5 donor marrow cells, Day 9): 2 | number of surviving mice ([2]; 2 × 10^5 donor marrow cells, Day 10): 2 | number of surviving mice ([2]; 2 × 10^5 donor marrow cells, Day 11): 2 | number of surviving mice ([2]; 2 × 10^5 donor marrow cells, Day 12): 1 | number of surviving mice ([2]; 2 × 10^5 donor marrow cells, Day 13): 0 | number of surviving mice ([2]; 5 × 10^5 donor marrow cells, Day 2): 3 | number of surviving mice ([2]; 5 × 10^5 donor marrow cells, Day 3): 3 | number of surviving mice ([2]; 5 × 10^5 donor marrow cells, Day 4): 3 | number of surviving mice ([2]; 5 × 10^5 donor marrow cells, Day 5): 3 | number of surviving mice ([2]; 5 × 10^5 donor marrow cells, Day 6): 3 | number of surviving mice ([2]; 5 × 10^5 donor marrow cells, Day 7): 3 | number of surviving mice ([2]; 5 × 10^5 donor marrow cells, Day 8): 2 | number of surviving mice ([2]; 5 × 10^5 donor marrow cells, Day 9): 2 | number of surviving mice ([2]; 5 × 10^5 donor marrow cells, Day 10): 2 | number of surviving mice ([2]; 5 × 10^5 donor marrow cells, Day 11): 2 | number of surviving mice ([2]; 5 × 10^5 donor marrow cells, Day 12): 2 | number of surviving mice ([2]; 5 × 10^5 donor marrow cells, Day 13): 2 | number of surviving mice ([2]; 5 × 10^5 donor marrow cells, Day 19): 2 | number of surviving mice ([2]; 11 Gy, 5 mg/kg IP bid, 1 × 10^5 donor marrow cells, Day 1): 3 | number of surviving mice ([2]; 11 Gy, 5 mg/kg IP bid, 2 × 10^5 donor marrow cells, Day 1): 3 | number of surviving mice ([2]; 11 Gy, 5 mg/kg IP bid, 5 × 10^5 donor marrow cells, Day 1): 3 | survival of transplanted mice ([2]; mouse, in vivo): promoted survival of mice receiving a bone marrow transplant | number of mice surviving ([3]; 7 Gy, 5 mg/kg IP daily for 7 doses, Day 5): 3 | number of mice surviving ([3]; 7 Gy, Day 6): 3 | number of mice surviving ([3]; 7 Gy, Day 7): 3 | number of mice surviving ([3]; 7 Gy, Day 8): 3 | number of mice surviving ([3]; 7 Gy, Day 9): 3 | number of mice surviving ([3]; 7 Gy, Day 10): 3 | number of mice surviving ([3]; 7 Gy, Day 11): 3 | number of mice surviving ([3]; 7 Gy, Day 12): 3 | number of mice surviving ([3]; 7 Gy, Day 13): 3 | number of mice surviving ([3]; 7 Gy, Day 14): 3 | number of mice surviving ([3]; 7 Gy, Day 15): 3 | appearance of surviving mice ([3]; 7 Gy, Day 25 (cell wraps: Looks / Healthy)): Looks | number of mice surviving ([3]; 9 Gy, 5 mg/kg IP daily for 7 doses, Day 5): 3 | number of mice surviving ([3]; 9 Gy, Day 6): 3 | number of mice surviving ([3]; 9 Gy, Day 7): 3 | number of mice surviving ([3]; 9 Gy, Day 8): 3 | number of mice surviving ([3]; 9 Gy, Day 9): 3 | number of mice surviving ([3]; 9 Gy, Day 10): 3 | number of mice surviving ([3]; 9 Gy, Day 11): 3 | number of mice surviving ([3]; 9 Gy, Day 12): 2 | number of mice surviving ([3]; 9 Gy, Day 13): 2 | number of mice surviving ([3]; 9 Gy, Day 14): 1 | number of mice surviving ([3]; 9 Gy, Day 15): 0 | number of mice surviving ([3]; 11 Gy, 5 mg/kg 1 dose/daily for 7 days, Day 5): 3 | number of mice surviving ([3]; 11 Gy, 5 mg/kg 1 dose/daily, continuous every day, Day 5): 3 | number of mice surviving ([3]; 11 Gy, 5 mg/kg IP daily for 7 doses, Day 5): 3 | number of mice surviving ([3]; 11 Gy, 5 mg/kg, 7 days, 2 dose daily, Day 5): 3 | number of mice surviving ([3]; 11 Gy, 1 dose/daily for 7 days, Day 6): 3 | number of mice surviving ([3]; 11 Gy, 1 dose/daily for 7 days, Day 7): 3 | number of mice surviving ([3]; 11 Gy, 1 dose/daily for 7 days, Day 8): 2 | number of mice surviving ([3]; 11 Gy, 1 dose/daily for 7 days, Day 9): 1 | number of mice surviving ([3]; 11 Gy, 1 dose/daily for 7 days, Day 10): 0 | number of mice surviving ([3]; 11 Gy, 1 dose/daily, continuous every day, Day 6): 3 | number of mice surviving ([3]; 11 Gy, 1 dose/daily, continuous every day, Day 7): 3 | number of mice surviving ([3]; 11 Gy, 1 dose/daily, continuous every day, Day 8): 3 | number of mice surviving ([3]; 11 Gy, 1 dose/daily, continuous every day, Day 9): 2 | number of mice surviving ([3]; 11 Gy, 1 dose/daily, continuous every day, Day 10): 0 | number of mice surviving ([3]; 11 Gy, 7 days, 2 dose daily, Day 6): 3 | number of mice surviving ([3]; 11 Gy, 7 days, 2 dose daily, Day 7): 3 | number of mice surviving ([3]; 11 Gy, 7 days, 2 dose daily, Day 8): 3 | number of mice surviving ([3]; 11 Gy, 7 days, 2 dose daily, Day 9): 2 | number of mice surviving ([3]; 11 Gy, 7 days, 2 dose daily, Day 10): 0 | number of mice surviving ([3]; 11 Gy, Table 7, Day 6): 3 | number of mice surviving ([3]; 11 Gy, Table 7, Day 7): 3 | number of mice surviving ([3]; 11 Gy, Table 7, Day 8): 3 | number of mice surviving ([3]; 11 Gy, Table 7, Day 9): 2 | number of mice surviving ([3]; 11 Gy, Table 7, Day 10): 0 | longer survival than vehicle control, on average ([3]; 11 Gy, any of the dosing schedules): 1 to 2 days | serum ALT levels (liver; 5 mg/kg IP bid, one mouse versus one control mouse): ALT values are lower | hepatic mitosis versus controls (liver; days 3 and 4): significantly increased hepatic mitosis | BrdU positive (S-phase) cells in liver (liver; post-operative day 2): clear increase in numbers of BrdU positive cells | change from baseline weight versus control (colon; 22 days): greater weight at all time points | ulcer formation prevented (colon; colonoscopy days 8, 11, 15): two-thirds | reduction of length of ulcerated mucosa (colon; day 15): 61% | body weight and colon length versus control (colon; day 22): greater body weight and greater colon lengths | MEICS scores versus control (colon; days 8, 11 and 15): significantly less colitis activity
